The text below walks through data of patent publication US8603999B2, “Amphiphile prodrugs” (Commonwealth Scientific and Industrial Research Organisation, priority 2008, dated 2013).

Data set [1] is described as follows: Lyotropic phase behaviour: water penetration scans, SAXS and XRD. The data set is classed as physicochemical. Conditions: for lyotropic phase behaviour in water penetration scans: concentration gradient from neat amphiphile to pure water, heated from room temperature; for d-spacing: RT, Lc; for Lyotropic phase behaviour: particle form in water at physiological temperature. The source says:
Lyotropic mesophase behaviour was studied using water penetration experiments. Neat amphiphile was placed on a glass slide, melted and cooled to facilitate sample homogenization and then covered with a glass cover slip. A few drops of Milli-Q water were then introduced to the edge of the cover slip which was drawn in by capillary action resulting in a concentration gradient from pure amphiphile in the centre to pure water around the edges of the cover slip. The generated mesophases were identified by their characteristic birefringent textures. Samples were then heated at 2° C./min from room temperature to ˜99° C. using an FP90 Linkam hotstage (Linkam Scientific Instruments, England). Thermotropic phase behaviour was also examined in the similar method but in the absence of water. The phases were viewed using an Olympus GX51 inverted polarising microscope (Olympus Australia Pty. Ltd, Australia) equipped with an Olympus C-5060 digital camera for image capture. All images were taken with 100× magnification unless elsewhere stated. […] The bulk phase of the binary amphiphile/water system was prepared by weighing the appropriate amount of sample and water in a sample vial. For those samples requiring pre-treatment, the samples were quickly melted in a pre-heated temperature controlled silicon-oil heating bath prior to addition of water. […] The prepared samples were analysed using an Anton-Paar SAXSess (Graz, Austria) with PANalytical PW3830 stand-alone X-ray generator operating at 40 kv, 50 mA with a sealed-tube Cu anode (λCu—Kα=0.154 nm). The samples were loaded into a paste cell sample holder at room temperature. […] Temperature control was via a TCU Temperature Control Unit (Anton Paar). […] The scattering results were recorded and analysed by the accompanied Anton Paar software.

Data set [2] has as its system Carboxylesterase from porcine liver. The experiment in a line: Hydrolysis of prodrugs by porcine liver carboxylesterase (CES), LC/MS. On the procedure: High purity Capecitabine (as solid crystals) was purchased from Xingcheng Chemphar Co., Ltd, P.R.China. […] Millipore water was used to prepare the prodrugs solutions with appropriate concentrations, while phosphate buffered saline (pH 7.4, PBS) was used in the preparation of different concentrations of enzyme.
Stock solution of Capecitabine was prepared by dissolving pure white Capecitabine into warm water. 1 mg/mL of Capecitabine solution was then further obtained by diluting the stock solution with milli-Q water. […] Prior to the experiments, prodrug particles were incubated at 37° C. for at least two weeks to achieve the equilibrium state of certain phases.
Stock solution of 10 mg/mL carboxylesterase solution was prepared by weighting 10 mg of powder enzyme in 1 mL of PBS buffer and shaking gently by hand. The concentration of the enzyme solution was adjusted to 1 mg/mL and 0.01 mg/mL by dilution of the stock solution. These solutions were used for the enzymatic hydrolysis of the prodrugs and Capecitabine respectively. […]
To measure the rate of the enzymatic reaction precisely, the starting substrate and the enzyme solution were mixed for a defined time by rapidly mixing together the two stock solutions and shaking. The time at which enzyme solution was added was taken as time zero for the hydrolysis reaction. The mixture was maintained at 37° C. throughout the experiment. The concentration of the hydrolysis product was then measured at various times using LC/MS (Finnigan LCQ Series, Thermo Scientific, USA). The time at which the sample was injected into the LC column was taken to be the reaction time for such sample. The hydrolysis progress curve showing the decrease in the concentration of original substrate was subsequently plotted.
The concentrations of prodrugs were determined using Thermo Finnigan LC/MS equipped with an atmospheric pressure chemical ionization (APCI) probe in positive ion mode. 10 μL of sample withdrawn from the reaction solution was injected directly into a Platinum EPS C18 100 Å 5u LC column with the length of 150 mm and internal diameter of 4.6 mm (Alltech, Australia). A mixture of 30% LCMS grade water and 70% Methanol was employed as mobile phase with the flow rate of 1 ml/min. The sample after the column separation was eluted to APCI source (MS full positive scan) to determine the molecular weight of the substrates. The vaporizer temperature of the APCI probe was set at 450° C. and the capillary temperature was operated at 200° C. The sample temperature was well maintained at 37° C. during the entire measurement by incubating the sample in the temperature controlled auto-sampler. Data were acquired and processed with Xcalibur Quan chromatography software.
The decreased concentration of substrate and the increased hydrolysis product 5′-dFCyd were detected based on the different retention time on chromatogram and m/z value in the MS positive scan. […] The decreased/increased ratio of reactant/5′dFCyd was determined by comparing the integration areas of the corresponding peaks.
The enzyme hydrolysis reaction was plotted as the logarithm of the ratio of original prodrug concentration to the decreased concentration of prodrug at a certain incubation time as a function of reaction time (Ln [S]0/[S] vs T).
In order to compare the enzymatic activity for each individual substrate to CES, we calculate a global reaction rate expressed as a specific activity (SA) (μmol/min/mg enzyme): SA=Δ[S]/(Δt·[CCES])
Here, as is common when discussing the SA, [CCES] is the enzyme concentration in mg/ml, Δ[S] is the substrate concentration change in μmol/ml during Δt time.

A short description of data set [3]: Particle size distribution of dispersions by dynamic light scattering. The data set is classed as physicochemical. The note with it: for Average Particle size: dispersions used in the hydrolysis study, physiological temperature. On the procedure: BASF) equivalent to 10% (w/w) of neat amphiphile and absolute ethanol were weighed in a sample vial. […] These crude dispersions were then passed through a series of PC membranes from the size range from 1 um to 100 nm to obtain a more uniform size distribution for the particles. The equipment used for size control is a mini-extruder (Avanti Polar Lipids, USA). […] The final concentration of colloidosomes were determined by ultra performance liquid chromatography (UPLC) and then diluted to 1 mg/mL for use in the enzyme hydrolysis study The particle size distribution and morphology of the above suspensions were determined using the method as described herein by using zetasizer and cryo-TEM characterisation methods. Solid lipid particles of prodrug 5-FCPal were prepared using mechanical methods. […] The melted prodrug and poloxamer mixture was then transferred to 40 mL of pre-warmed water upon vigorous vortexing. The mixture was then sheared with a rough homogenizer (Ultra Turrax®, T18 Basic, IKA® Werke GmbH & Co. KG, Germany) at 14,000 rpm for 10 min. The resultant dispersion was further transferred to the ultrasonic benchtop cleaner for a few hours of ultra sonication. […] Determination of the particle size distribution of the colloidosome and solid lipid particle dispersions were carried out using a Zetasizer (nano zs, Malvern, England) equipped with a He—Ne Laser (4 mw, 633 nm) and an avalanche photodiode detector. […] […] The size distribution was recorded by intensity.

The nature of data set [4]: Thermal decomposition by TGA. Format: physicochemical. The note with it: neat prodrug.
The test system of data set [5] is 4T1 tumour. The data set is described as follows: Second 4T1 tumour study, daily dosing for 17 days (Example 7). The source says: Also, the dosage of both compounds was increased to 1.5 mmol for each treatment.
Where [6] appears, read: porcine liver CES, 37° C., enzyme 0.5 mg/mL for prodrugs.
Setting [7] is: porcine liver CES, 37° C., enzyme 0.5 mg/mL for prodrugs, 0.005 mg/ml for Capecitabine.
The mark [8] stands for this setting: DLS at 25° C., 5-FCPhy and 5-FCOle after membrane extrusion, 5-FCPal solid lipid particles.
Setting [9] is: in excess water with 2.3% F127 and 4.87% Ethanol, SAXS, 37° C.
The mark [10] stands for this setting: in excess water, RT (25° C.), SAXS.

Regarding “5′-deoxy-5-fluoro-N^4-(octadecyl-1-oxycarbonyl)cytidine [Prodrug 5-FCSte]”, in data set [1] (physiological temperatures), the “phase in excess water” value is on record as “lamellar phases”.
As for `CCCCCCCCCCCCCCCCOC(=O)Nc1nc(=O)n([C@@H]2O[C@H](C)[C@@H](O)[C@H]2O)cc1F` [Prodrug 5-FCPal, 5′-deoxy-5-fluoro-N^4-(hexadecyl-1-oxycarbonyl)cytidine], the “time over which hydrolysis continued towards full conversion” value in data set [2] (CES 0.5 mg/mL, 37° C.) is “more than 7 days”. In addition, in data set [2] (setting [6]), the “Specific Activity (SA) at time t = 24 h” value amounted to 0.27 µmol/mL. Also, in data set [2] (setting [7]), the Specific Activity (SA) at time t = 1 h was determined as 0.3 µmol/min/mg, the Specific Activity (SA) at time t = 2 h amounted to 0.38 µmol/min/mg and the Specific Activity (SA) at time t = 6 h was 0.33 µmol/min/mg. Also, the “mean (average) particle size” value in data set [3] (setting [8]) was 700 nm. Further, the “Average Particle size” value in data set [3] turned out to be 661 nm. Besides, in data set [1], the “lyotropic phase behaviour in water penetration scans” value is reported as “did not swell” and the Lyotropic phase behaviour result was “Solid lipid”. Also, the Phases entry in data set [1] (in excess water, equilibration @ RT 7 Days, RT, 37, 50° C.) is “Lamellar”. Also, the d-spacing result in data set [1] (in excess water, equilibration @ RT 7 Days) was “(2.86 nm)”. Also, the Phases entry in data set [1] (without water, RT, 37, 50, 70, 90° C., SAXS confirmed with XRD) is “Lamellar”. Also, in data set [1] (without water), the d-spacing entry is reported as “(2.87 nm)”. For the same compound, in data set [4], the “temperature at which decomposition starts (TGA)” value was “approximately 120 °C”.
Consider `CCCCCOC(=O)Nc1nc(=O)n([C@@H]2O[C@H](C)[C@@H](O)[C@H]2O)cc1F` [Capecitabine, reference compound], for which the “time to hydrolysis to 5-FC” value in data set [2] (5 mg/ml and 0.5 mg/ml enzyme concentration) is reported as at most 30 min. In addition, in data set [2] (obtained from three enzymatic concentrations), the “enzyme activities (SA)” value was 600-900 μmol/min/mg enzyme. Also, in data set [2] (setting [7]), the Specific Activity (SA) at time t = 0.5 h is 933 µmol/min/mg, the Specific Activity (SA) at time t = 1 h was found to be 733 µmol/min/mg, the Specific Activity (SA) at time t = 2 h came out at 717 µmol/min/mg and the Specific Activity (SA) at time t = 6 h stood at 598 µmol/min/mg.
Turning to `CCCCCCCC/C=C\CCCCCCCCOC(=O)Nc1nc(=O)n(C2OC(C)C(O)C2O)cc1F` (stereo not drawn) [Prodrug 5-FCOle, 5′-deoxy-5-fluoro-N^4-(cis-9-octadecenyl-1-oxycarbonyl)cytidine], the “SA relative to 5-FCPal” value in data set [2] (CES hydrolysis) is around 10 times. Also, in data set [2] (setting [6]), the “Specific Activity (SA) at time t = 12 h” value turned out to be 2.37. For the same compound, the Specific Activity (SA) at time t = 1 h in data set [2] (setting [7]) worked out at 4.97 µmol/min/mg. Also, the Specific Activity (SA) at time t = 2 h in data set [2] (setting [7]) came to 3.7 µmol/min/mg. For the same compound, the Specific Activity (SA) at time t = 6 h in data set [2] (setting [7]) was 2.24 µmol/min/mg. The “mean (average) particle size” value in data set [3] (setting [8]) stood at 255 nm. For the same compound, the particle size distribution in data set [3] (setting [8]) is on record as 150-500 nm. Besides, the “Average Particle size” value in data set [3] worked out at 261 nm. In addition, the “lyotropic phase behaviour in water penetration scans” value in data set [1] is “traditional lamellar (L[…]) phase at room temperature and 3D cubic (Pn3m) phase at elevated temperatures above 33 °C”. In addition, the Lattice parameter in data set [1] (setting [9]) was 37 °C Pn3m: 9.10 nm; in data set [1] (in excess water, 37° C., SAXS) it was 37 °C Pn3m: 10.40 nm; in data set [1] (setting [10]) it was 25 °C Lα: 6.01 nm; in data set [1] (neat, SAXS, 25° C.), 25° C.: 2.99 nm; in data set [1] (neat, SAXS, 37° C.), 37° C.: 3.00 nm; in data set [1] (neat, XRD, 25° C.), 2.977 nm. In addition, the Phases entry in data set [1] (setting [9]) was “Pn3m”; in data set [1] (in excess water, 37° C., SAXS) it was 37 °C Pn3m; in data set [1] (setting [10]), “RT: Lα”; in data set [1] (neat, SAXS, 25, 37° C.), “Smectic”; in data set [1] (neat, XRD, 25° C.), “Smectic”. In addition, in data set [1], the Lyotropic phase behaviour result is “Cubosome”. Further, in data set [4], the “temperature at which decomposition starts (TGA)” value was determined as 123 °C. Also, the “average 4T1 tumour volume by day 17” value in data set [5] (1.5 mmol for each treatment, daily for 17 days) was “significantly smaller tumour volumes”. In addition, the “spleens from animals sacrificed at 17 days (images)” value in data set [5] (FIG. 19) is listed as “normal spleens”. Moreover, in data set [5] (FIG. 19), the “tumours from animals sacrificed at 17 days (images)” value is listed as “significantly smaller tumours”. In addition, the “time for tumours to reach a similar size as the other treatment groups after treatment was stopped” value in data set [5] (treatment stopped on day 17) is given as “a full week”.
On to “5′-deoxy-5-fluoro-N^4-(cis-9,cis-12-octadecenyl-1-oxycarbonyl)cytidine [Prodrug 5-FCLeo]”, for which the “phase in excess water” value in data set [1] (physiological temperatures) is “fluid isotropic phase”. Further, the “phase at limited hydration” value in data set [1] (limited hydration, physiological temperatures) is “inverse phases”.
